Measurements published in ChEMBL document CHEMBL1201862, “PubChem BioAssay data set” (2004).
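The compound was tested at five concentrations on cells cultured in 96-well plates, with a 48-hour exposure period. GI50 = concentration required for 50% inhibition of growth.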 The source made the active and inactive calls. Rule as the data show it: active = GI50 up to about 1.1 µM and inactive = higher.

How the values were obtained:
Assay in all cases: NCI anticancer screen, dose series, 48 h
786-0 = tested on: 786-0
CAKI-1 = tested on: CAKI-1
CCRF-CEM = tested on: CCRF-CEM
COLO 205 = tested on: COLO 205
EKVX = tested on: EKVX
HOP-62 = tested on: HOP-62
K562 = tested on: K562
M14 = tested on: M14
Malme-3M = tested on: Malme-3M
NCI-H226 = tested on: NCI-H226
NCI-H460 = tested on: NCI-H460
NCI/ADR-RES = tested on: NCI/ADR-RES
OVCAR-5 = tested on: OVCAR-5
SF-268 = tested on: SF-268
SF-539 = tested on: SF-539
SK-MEL-5 = tested on: SK-MEL-5
SK-OV-3 = tested on: SK-OV-3
U-251 = tested on: U-251
UO-31 = tested on: UO-31

Measured: GI50

c1ccc2c(c1)CCc1c-2n(CCN2CCOCC2)c2ccccc12
inactive: 786-0 > 100 µM | CAKI-1 22.1 µM | CCRF-CEM 21.2 µM | COLO 205 37.4 µM | EKVX > 100 µM | HOP-62 68.4 µM | K562 2.14 µM | M14 44 µM | Malme-3M 13.6 µM | NCI-H226 52.6 µM | NCI-H460 26.5 µM | NCI/ADR-RES > 100 µM | OVCAR-5 > 100 µM | SF-268 > 100 µM | SF-539 37.9 µM | SK-MEL-5 18.8 µM | SK-OV-3 26 µM | U-251 > 100 µM | UO-31 > 100 µM

COc1cc(/C=C/C(=O)C2(C(=O)/C=C/c3cc(OC)c(OC)c(OC)c3)CCCCC2)cc(OC)c1OC
inactive: 786-0 43.2 µM | CAKI-1 49.4 µM | CCRF-CEM 34.3 µM | COLO 205 78.9 µM | EKVX 27.5 µM | HOP-62 55.6 µM | K562 51.3 µM | M14 29.9 µM | Malme-3M 37.6 µM | NCI-H226 32.7 µM | NCI-H460 80.7 µM | NCI/ADR-RES 32.1 µM | OVCAR-5 94.2 µM | SF-268 40.5 µM | SF-539 19 µM | SK-MEL-5 34.8 µM | SK-OV-3 68.9 µM | U-251 30.1 µM | UO-31 60.7 µM

COC(=O)c1cc(CC2Cc3cc4c(cc3C2=O)CCC4)cc2c1CCC2 (configuration not stated)
inactive: 786-0 55.2 µM | CAKI-1 64.6 µM | CCRF-CEM > 100 µM | COLO 205 93.3 µM | EKVX > 100 µM | HOP-62 53.1 µM | K562 39.1 µM | M14 52.1 µM | Malme-3M 37.8 µM | NCI-H226 > 100 µM | NCI-H460 > 100 µM | NCI/ADR-RES 81.5 µM | OVCAR-5 > 100 µM | SF-268 > 100 µM | SF-539 > 100 µM | SK-OV-3 > 100 µM | U-251 > 100 µM | UO-31 > 100 µM

COc1ccc2[nH]c3c(c2c1)CCc1ccccc1-3
inactive: 786-0 50.7 µM | CAKI-1 > 100 µM | CCRF-CEM > 100 µM | COLO 205 > 100 µM | EKVX 17.6 µM | HOP-62 35.2 µM | K562 > 100 µM | M14 > 100 µM | Malme-3M 39.2 µM | NCI-H226 > 100 µM | NCI-H460 30.8 µM | NCI/ADR-RES 40.4 µM | OVCAR-5 > 100 µM | SF-268 38.7 µM | SF-539 16.7 µM | SK-MEL-5 > 100 µM | SK-OV-3 40.9 µM | U-251 30.3 µM | UO-31 70.1 µM

O=[N+]([O-])/C(C(Cl)=C(Cl)Cl)=C(\Nc1ccccc1)n1nnc2ccccc21
inactive: 786-0 48.9 µM | CAKI-1 > 100 µM | CCRF-CEM 21.4 µM | COLO 205 27 µM | EKVX > 100 µM | HOP-62 30.6 µM | K562 > 100 µM | M14 65 µM | Malme-3M 46.1 µM | NCI-H226 > 100 µM | NCI-H460 77.8 µM | NCI/ADR-RES 41.6 µM | OVCAR-5 42.1 µM | SF-268 19.8 µM | SF-539 32.3 µM | SK-OV-3 71.3 µM | U-251 29.9 µM | UO-31 21.9 µM

N=C(N)NS(=O)(=O)c1ccc(NC(=O)c2c3ccccc3nc3ccccc23)cc1
inactive: 786-0 > 100 µM | CAKI-1 > 100 µM | CCRF-CEM > 100 µM | COLO 205 > 100 µM | EKVX > 100 µM | HOP-62 > 100 µM | K562 > 10 µM | M14 > 100 µM | Malme-3M > 100 µM | NCI-H226 43.1 µM | NCI-H460 > 100 µM | NCI/ADR-RES > 100 µM | OVCAR-5 > 100 µM | SF-268 > 100 µM | SF-539 > 100 µM | SK-MEL-5 > 100 µM | SK-OV-3 > 100 µM | U-251 > 100 µM | UO-31 > 100 µM
